Patent publication US11278504B1, “Treatment of a lionfish sting and formulations for use thereof” (priority 2019, dated 2022)

How the values were obtained:
P2X3 = target: T1, P2X3 (Mus musculus, UniProt Q3UR32); test: Spontaneous pain assay, intraplantar AF-353 before or after lionfish venom; type: in vivo, mice; details: AF-353 3 mM in 20 μL intraplantar 30 minutes prior or within 2 minutes after 66 μg venom; 1 hour
T1 construct: from tissue; host or cells: living mice, hind paw (whole animal, behavioural read-out)
Description: AF-353 was prepared in a stock solution of 300 mM in DMSO and diluted to 3 mM in physiological saline for at the time of experimentation. Mice were injected with AF-353 intraplantarly either 30 minutes prior to injection of lionfish venom, to determine whether the compound could be used as a prophylactic treatment against lionfish envenomations, or immediately (within 2 minutes) after injection of lionfish venom in the paw, in order to determine whether the compound could be used as a treatment after lionfish envenomations. During the experiment, mice were placed on a glass surface with a mirror placed underneath at a 45-degree angle and kept in round Plexi-glass restrainers. A video camera filmed the animals' spontaneous pain behaviour for an hour. The amount of time the mice spent licking their paws was quantified by two independent and blinded experimenters.
Mice were injected with the vehicle (Veh) for AF-353 (DMSO) 30 minutes prior to injection of the Veh for the venom (physiological saline) (empty squares), venom (Vnm) followed by Veh (DMSO; black squares), AF-353 (AF, 3 mM in a total volume of 20 μL) followed by venom (light grey squares), or venom followed by AF-353 (dark grey squares). n=5 mice per group. The dose of venom injected was 66 μg of crude venom in a total volume of 20 μL (veh. saline). […] Stats: ***=P<0.001; **=P=0.009. Unpaired t test.

P2X3 receptor = target: T2, P2X3 receptor (Homo sapiens, UniProt P56373); test: Calcium imaging of cultured human nociceptors exposed to lionfish venom; type: cell-based; details: AF-353 300 nM, 8-minute incubation; p<0.001 Fisher's exact test
T2 construct: dorsal root ganglia were isolated from human organ donors and placed in culture; endogenous in cells; host or cells: primary sensory neurons cultured from human donor dorsal root ganglia
T2 sequence (P56373 whole entry): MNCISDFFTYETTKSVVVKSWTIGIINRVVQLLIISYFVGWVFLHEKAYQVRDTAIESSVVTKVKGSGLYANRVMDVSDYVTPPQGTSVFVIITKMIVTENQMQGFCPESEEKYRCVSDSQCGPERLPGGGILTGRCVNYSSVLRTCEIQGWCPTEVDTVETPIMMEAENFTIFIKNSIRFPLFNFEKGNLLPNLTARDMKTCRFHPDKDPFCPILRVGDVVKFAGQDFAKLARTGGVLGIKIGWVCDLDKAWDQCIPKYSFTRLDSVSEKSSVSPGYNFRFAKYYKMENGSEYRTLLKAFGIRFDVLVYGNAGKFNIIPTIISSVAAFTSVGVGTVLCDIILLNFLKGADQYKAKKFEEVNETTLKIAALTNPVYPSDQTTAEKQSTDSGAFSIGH
Description: To verify the efficacy of this compound in humans, dorsal root ganglia were isolated from human organ donors and placed in culture between 3 and 5 hours after cross-clamping the heart. Sensory neurons were cultured for at least 5 days before performing any experiments to allow for satellite cell detachment. For calcium imaging experiments, human nociceptors were exposed to the lionfish venom in the presence of the P2X3 receptor antagonist AF-353 (300 nM), which was introduced in the bath solution (in mM: NaCl 150, KCl 3, Glucose 10, CaCl2) 2, and MgCl2 1; in distilled water, buffered to a pH of 7.3). Cells were incubated with AF-353 for 8-minutes either after an initial application of lionfish venom or before any applications of the venom. Venom was applied in 2-second puffs with a picospritzer as in FIG. 2.

P2X3 receptors = target: T3, P2X3 receptors (Mus musculus, UniProt Q3UR32); type: cell-based
T3 construct: endogenous in cells; host or cells: primary DRG cultures of TRPV1-Cre::GCaMP6f mice
T3 sequence (Q3UR32 1-397): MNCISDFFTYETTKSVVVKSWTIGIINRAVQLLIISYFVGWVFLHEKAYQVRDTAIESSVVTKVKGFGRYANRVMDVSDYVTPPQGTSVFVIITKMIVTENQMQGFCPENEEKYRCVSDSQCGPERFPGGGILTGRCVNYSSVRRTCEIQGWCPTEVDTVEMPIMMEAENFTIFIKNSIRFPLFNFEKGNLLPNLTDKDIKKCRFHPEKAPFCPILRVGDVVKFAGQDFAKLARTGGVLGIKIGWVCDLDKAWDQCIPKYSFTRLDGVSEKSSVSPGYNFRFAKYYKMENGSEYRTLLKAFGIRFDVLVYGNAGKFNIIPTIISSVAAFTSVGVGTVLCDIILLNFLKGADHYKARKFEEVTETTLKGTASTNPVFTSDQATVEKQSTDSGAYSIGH
Description: Cre-dependent GCaMP6f mice (Ai95D; Jackson Labs) were crossed with TRPV1-Cre mice to express GCaMP6f in all nociceptors. In TRPV1-Cre::GCaMP6f mice, GCaMP6f expression is not limited to cells that are TRPV1-positive at maturity, because TRPV1 is expressed broadly amongst nociceptors early in development.
DRG cultures were grown on 35 mm dishes. On the 3rd day, the cultures were treated with complexes of predesigned siRNA molecules directed against mouse P2X3 or a non-targeting control siRNA (Qiagen FlexiTube siRNA final concentration 100 nM) and 2 ul of HiPerFect transfection reagent. The cells were incubated with the transfection complexes for 48 to 72 hours with addition of fresh media 24 h post-transfection.

TRPV1 [1] = target: T4, TRPV1 (Mus musculus, UniProt Q704Y3); type: cell-based, mice
T4 sequence (Q704Y3 whole entry): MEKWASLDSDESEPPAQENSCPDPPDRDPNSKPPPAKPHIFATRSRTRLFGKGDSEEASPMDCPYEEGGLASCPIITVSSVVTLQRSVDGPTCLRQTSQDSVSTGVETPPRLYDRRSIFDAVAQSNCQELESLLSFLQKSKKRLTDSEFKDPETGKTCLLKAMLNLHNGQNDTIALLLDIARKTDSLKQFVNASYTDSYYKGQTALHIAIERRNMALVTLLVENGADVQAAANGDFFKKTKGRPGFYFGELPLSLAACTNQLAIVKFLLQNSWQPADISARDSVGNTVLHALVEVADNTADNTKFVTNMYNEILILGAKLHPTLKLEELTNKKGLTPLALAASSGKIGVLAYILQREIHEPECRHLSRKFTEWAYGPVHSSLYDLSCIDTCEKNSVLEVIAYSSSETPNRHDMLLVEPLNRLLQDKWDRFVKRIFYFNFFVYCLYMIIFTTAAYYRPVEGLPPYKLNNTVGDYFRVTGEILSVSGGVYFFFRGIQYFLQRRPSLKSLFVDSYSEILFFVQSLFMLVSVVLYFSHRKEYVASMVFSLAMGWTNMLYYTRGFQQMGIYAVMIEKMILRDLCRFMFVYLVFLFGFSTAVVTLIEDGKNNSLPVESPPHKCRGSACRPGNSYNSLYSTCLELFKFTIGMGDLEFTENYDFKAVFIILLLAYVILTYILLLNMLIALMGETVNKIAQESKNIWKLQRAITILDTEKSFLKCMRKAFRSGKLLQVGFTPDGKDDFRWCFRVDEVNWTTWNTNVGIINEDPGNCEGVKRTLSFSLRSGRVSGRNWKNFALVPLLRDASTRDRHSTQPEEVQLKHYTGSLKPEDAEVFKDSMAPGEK
Description: To test the TRPV1 receptor antagonist, changes in intracellular calcium concentrations in single cells were recorded as changes in GCaMP6f fluorescence. Exposure to the antagonist (10 μM) and image analysis were performed in a manner similar to the bradykinin (BK) receptor antagonist described above. The TRPV1 receptor agonist capsaicin (1 μM) and lionfish venom were applied during 1 second over the imaging region.

TRPV1 [2] = target: T4, TRPV1; type: in vivo, mice; details: 30 mg/kg intraperitoneal; 44 μg venom intraplantar; P=0.841 vs vehicle
Description: Protein concentration in the venom extract was determined to be 2.2 μg/μL using the Bio-Rad DC assay. Mice (12-weeks old C57BL/6 males and females, The Jackson Laboratory) were placed in an observation chamber on a glass platform, under which a mirror was placed at a 45° angle so as to show the hind paw of the mouse to the recording videocamera. Once the mice were acclimatized to the chamber, they were taken out and injected in the ventral aspect of their left hind paw with a 20 μl solution of the crude or diluted venom (44 or 4.4 μg/20 μl). The venom was extracted in sterile physiological saline (0.9% NaCl) and the same vehicle was used for dilutions.

COc1cc(C(C)C)c(Oc2cnc(N)nc2N)cc1I [AF-353]
pain caused by lionfish venom in vivo (time licking injected paw) (P2X3): effective in reducing or eliminating pain
venom-induced calcium responses in human nociceptors (P2X3 receptor): do not display calcium responses
venom-elicited intracellular calcium responses in cultured mouse nociceptors (P2X3 receptors): reversibly blocks
α,β,Me-ATP-elicited calcium responses in cultured mouse nociceptors (P2X3 receptors; selective P2X3 receptor agonist α,β,Me-ATP): reversibly blocks

CC(C)(C)c1ccc(/C=C/C(=O)Nc2ccc3c(c2)OCCO3)cc1 [AMG-9810]
Proportion of cultured DRG neurons responding to capsaicin in the presence of AMG-9810 (TRPV1 [1]): 0/65
effect on capsaicin-elicited rise in intracellular calcium (sample traces) (TRPV1 [1]): blocked response
proportion of cells (DRG neurons) responding to the venom in the presence of AMG-9810 (TRPV1 [1]; AMG-9810 10 μM, Fisher exact test P=0.322): 30/32
venom-elicited spontaneous pain behavior over 1 hour after AMG-9810 pretreatment (TRPV1 [2]): independent

COc1cc(CNC(=O)CCCC/C=C/C(C)C)ccc1O [capsaicin]
Proportion of cultured DRG neurons responding to capsaicin alone (TRPV1 [1]): 45/65
